According to patent US10233173B2, “Substituted 1,2,3-triazoles as NR2B-selective NMDA modulators” (JANSSEN PHARMACEUTICA NV, priority 2016, dated 2019):

molecular target: human GluN1/GluN2B NMDA receptors (Homo sapiens, UniProt Q05586+Q13224); experiment: Cell-based calcium flux (FLIPR) assay on cloned human NR1/NR2B ion channels expressed in mammalian cells; settings: standard assay; glutamate at ~EC80; FLIPR calcium flux
Experimental: Effects of Test Articles on Cloned Human NR1/NR2B Ion Channels Expressed in Mammalian Cells
NMDA receptors are ion channels that are highly permeable to Ca^2+ ions, rendering it possible to monitor NMDA receptor function using cell-based calcium flux assay. In this assay, co-agonists glutamate and glycine are added to cells heterologously expressing human GluN1/GluN2B NMDA receptors to initiate cellular Ca^2+ influx. The time course of the changes in intracellular calcium is measured using a fluorescent dye and a FLIPR (Fluorometric Imaging Plate Reader) device.
Twenty four hours before measurements, the expression of the NMDA receptors in the stable cell line is induced with Tet-On inducible system in the presence of a non-selective NMDA receptor blocker. On the day of the experiment, cell culture media is carefully washed and the cells are loaded with Calcium 5 Dye Kit (Molecular Devices) in dye loading buffer containing 149 mM NaCl, 4 mM KCl, 2 mM CaCl2, and 1.5 mM MgCl2, 10 mM HEPES and 5 mM D-glucose; pH 7.4. After 1 h incubation at the room temperature, the dye is washed away with the assay buffer (149 mM NaCl (standard assay) or 150 mM (HTS assay), 4 mM KCl (standard assay) or 3 mM (HTS assay), 2 mM CaCl2, 0.01 mM EDTA, 10 mM HEPES and 5 mM D-glucose; pH 7.4) In the FLIPR TETRA reader, various concentrations of the test compounds are added to the cells for 5 min while fluorescence is monitored to detect potential agonist activity. Next, co-agonists, glutamate and glycine are added for another 5 minutes. The concentration of glutamate corresponding to ˜EC80 (standard assay) or EC40 (HTS assay) is used to maximize the assay's signal window or the ability to detect NMDA receptor antagonists and negative allosteric modulators, respectively. A saturating concentration (10 μM) of glycine is also present in the assay. […] The fluorescent signal in the presence of test compounds is quantified and normalized to the signal defined by the appropriate control wells.

human GluN1/GluN2B NMDA receptors, sequence (Q13224 27-1484, other chains not shown): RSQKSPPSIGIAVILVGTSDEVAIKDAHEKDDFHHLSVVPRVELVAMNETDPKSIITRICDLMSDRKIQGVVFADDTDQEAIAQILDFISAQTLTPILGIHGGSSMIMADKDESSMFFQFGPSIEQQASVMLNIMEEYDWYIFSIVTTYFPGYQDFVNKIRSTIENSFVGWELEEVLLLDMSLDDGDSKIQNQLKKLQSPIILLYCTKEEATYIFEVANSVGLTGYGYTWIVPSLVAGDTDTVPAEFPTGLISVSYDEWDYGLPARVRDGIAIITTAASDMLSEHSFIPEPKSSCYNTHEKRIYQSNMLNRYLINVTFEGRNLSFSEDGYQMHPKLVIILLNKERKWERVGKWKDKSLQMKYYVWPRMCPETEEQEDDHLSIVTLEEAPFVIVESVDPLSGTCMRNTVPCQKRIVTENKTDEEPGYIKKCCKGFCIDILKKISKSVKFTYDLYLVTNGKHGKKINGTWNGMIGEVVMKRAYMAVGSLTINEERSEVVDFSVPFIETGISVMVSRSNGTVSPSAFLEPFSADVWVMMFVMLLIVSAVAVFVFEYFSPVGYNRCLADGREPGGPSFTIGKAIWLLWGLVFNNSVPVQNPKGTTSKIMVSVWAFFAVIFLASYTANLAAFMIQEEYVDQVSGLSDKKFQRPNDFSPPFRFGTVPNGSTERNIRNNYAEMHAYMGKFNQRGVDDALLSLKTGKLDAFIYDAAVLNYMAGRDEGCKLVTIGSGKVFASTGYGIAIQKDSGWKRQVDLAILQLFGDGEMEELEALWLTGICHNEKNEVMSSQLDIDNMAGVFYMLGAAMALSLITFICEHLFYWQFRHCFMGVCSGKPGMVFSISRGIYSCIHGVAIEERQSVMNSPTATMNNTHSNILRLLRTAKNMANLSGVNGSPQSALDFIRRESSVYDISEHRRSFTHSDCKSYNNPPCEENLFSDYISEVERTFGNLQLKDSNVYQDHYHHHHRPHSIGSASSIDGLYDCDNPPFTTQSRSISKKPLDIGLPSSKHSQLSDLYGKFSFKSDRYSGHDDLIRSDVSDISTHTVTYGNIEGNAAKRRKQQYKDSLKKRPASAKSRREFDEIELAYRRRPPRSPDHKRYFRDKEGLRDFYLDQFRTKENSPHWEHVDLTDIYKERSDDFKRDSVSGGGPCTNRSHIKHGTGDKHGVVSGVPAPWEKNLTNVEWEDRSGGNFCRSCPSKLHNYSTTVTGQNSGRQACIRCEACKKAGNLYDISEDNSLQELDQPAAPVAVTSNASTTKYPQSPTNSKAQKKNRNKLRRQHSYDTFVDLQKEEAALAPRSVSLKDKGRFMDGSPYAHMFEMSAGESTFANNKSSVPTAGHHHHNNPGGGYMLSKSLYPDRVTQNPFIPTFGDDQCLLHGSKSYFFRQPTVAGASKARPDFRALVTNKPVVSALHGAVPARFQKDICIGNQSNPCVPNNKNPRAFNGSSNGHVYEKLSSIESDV

Point of comparison: `COC1CN(c2cnc(OCc3cn(-c4ccc(F)c(C(F)F)c4)nn3)nc2)C1` [Example 418, 2-((1-(3-(Difluoromethyl)-4-fluorophenyl)-1H-1,2,3-triazol-4-yl)methoxy)-5-(3-methoxyazetidin-1-yl)pyrimidine], IC50 0.271 µM. Against it:
- FCCOc1cnc(OCc2cn(-c3ccc(Cl)c(C(F)F)c3)nn2)nc1 [Example 636, 2-[[1-[4-Chloro-3-(difluoromethyl)phenyl]triazol-4-yl]methoxy]-5-(2-fluoroethoxy)pyrimidine] — 27-fold lower, 0.01 µM
- Cc1cnc(OCc2cn(-c3ccc(F)c(OC(F)F)c3)nn2)cn1 [Example 396, 2-[[1-[3-(Difluoromethoxy)-4-fluoro-phenyl]triazol-4-yl]methoxy]-5-methyl-pyrazine] — 2.4-fold higher, 0.647 µM
- Cc1nc(OCc2cn(-c3ccc(F)c(OC(F)F)c3)nn2)ncc1F [Example 493, 2-[[1-[3-(Difluoromethoxy)-4-fluoro-phenyl]triazol-4-yl]methoxy]-5-fluoro-4-methyl-pyrimidine] — 68-fold lower, 0.004 µM
- COCc1cnc(OCc2cn(-c3ccc(F)c(C(F)(F)F)c3)nn2)nc1 [Example 437, 2-[[1-[4-Fluoro-3-(trifluoromethyl)phenyl]triazol-4-yl]methoxy]-5-(methoxymethyl)pyrimidine] — 3.8-fold lower, 0.071 µM
- CC(F)(F)c1cc(-n2cc(COc3ncc(CO)cn3)nn2)ccc1Cl [Example 533, [2-[[1-[4-Chloro-3-(1,1-difluoroethyl)phenyl]triazol-4-yl]methoxy]pyrimidin-5-yl]methanol] — 16-fold lower, 0.017 µM
- CC(C)c1ccnc(OCc2cn(-c3ccc(Cl)c(C(F)F)c3)nn2)n1 [Example 623, 2-[[1-[4-Chloro-3-(difluoromethyl)phenyl]triazol-4-yl]methoxy]-4-isopropyl-pyrimidine] — 2.1-fold lower, 0.129 µM
- CC(F)(F)c1cc(-n2cc(COc3nccc(N)n3)nn2)ccc1Cl [Example 547, 2-[[1-[4-Chloro-3-(1,1-difluoroethyl)phenyl]triazol-4-yl]methoxy]pyrimidin-4-amine] — 8.2-fold lower, 0.033 µM
- CCc1cnc(OCc2cn(-c3ccc(F)c(Cl)c3)nn2)nc1 [Example 621, 2-[[1-(3-Chloro-4-fluoro-phenyl)triazol-4-yl]methoxy]-5-ethyl-pyrimidine] — 90-fold lower, 0.003 µM
- OCc1cnc(OCc2cn(-c3ccc(F)c(Br)c3)nn2)nc1 [Example 616, [2-[[1-(3-Bromo-4-fluoro-phenyl)triazol-4-yl]methoxy]pyrimidin-5-yl]methanol] — 9-fold lower, 0.03 µM
- COc1cnc(OCc2cn(-c3ccc(C(F)(F)F)s3)nn2)nc1 [Example 669, 5-Methoxy-2-((1-(5-(trifluoromethyl)thiophen-2-yl)-1H-1,2,3-triazol-4-yl)methoxy)pyrimidine] — 68-fold lower, 0.004 µM
- Fc1ccc(-n2cc(COc3cccc(C(F)(F)F)n3)nn2)cc1OC(F)F [Example 395, 2-[[1-[3-(Difluoromethoxy)-4-fluoro-phenyl]triazol-4-yl]methoxy]-6-(trifluoromethyl)pyridine] — 3.4-fold higher, 0.919 µM
- CC(=O)c1cnc(OCc2cn(-c3ccc(C)c(OC(F)F)c3)nn2)nc1 [Example 522, 1-[2-[[1-[3-(Difluoromethoxy)-4-methyl-phenyl]triazol-4-yl]methoxy]pyrimidin-5-yl]ethanone] — 2.9-fold lower, 0.093 µM
- CC(F)(F)c1cc(-n2cc(COc3ncc(OC(F)F)cn3)nn2)ccc1Cl [Example 542, 2-[[1-[4-Chloro-3-(1,1-difluoroethyl)phenyl]triazol-4-yl]methoxy]-5-(difluoromethoxy)pyrimidine] — 23-fold lower, 0.012 µM
- CNc1ccnc(OCc2cn(-c3ccc(F)c(OC(F)F)c3)nn2)n1 [Example 503, 2-[[1-[3-(Difluoromethoxy)-4-fluoro-phenyl]triazol-4-yl]methoxy]-N-methyl-pyrimidin-4-amine] — 34-fold lower, 0.008 µM
- Cc1cccc(OCc2cn(-c3ccc(F)c(C(F)(F)F)c3)nn2)n1 [Example 430, 2-[[1-[4-Fluoro-3-(trifluoromethyl)phenyl]triazol-4-yl]methoxy]-6-methyl-pyridine] — 2.5-fold lower, 0.11 µM
- Cc1cnc(OCc2cn(-c3ccc(F)c(OC(F)F)c3)nn2)nc1N [Example 514, 2-[[1-[3-(Difluoromethoxy)-4-fluoro-phenyl]triazol-4-yl]methoxy]-5-methyl-pyrimidin-4-amine] — 54-fold lower, 0.005 µM
- Cc1ccnc(OCc2cn(-c3ccc(C)c(OC(F)F)c3)nn2)n1 [Example 523, 2-[[1-[3-(Difluoromethoxy)-4-methyl-phenyl]triazol-4-yl]methoxy]-4-methyl-pyrimidine] — 2.4-fold lower, 0.114 µM

same assay, conditions: standard assay; human GluN1/GluN2B, calcium flux (FLIPR), glutamate ~EC80

Point of comparison: `Fc1cnc(OCc2cn(-c3ccc4c(c3)OC(F)(F)O4)nn2)nc1` [Example 358, 2-[[1-(2,2-Difluoro-1,3-benzodioxol-5-yl)triazol-4-yl]methoxy]-5-fluoro-pyrimidine], IC50 0.726 µM. Against it:
- Cn1nccc1NCc1cn(-c2ccc(F)c(C(F)F)c2)nn1 [Example 219, N-((1-(3-(Difluoromethyl)-4-fluorophenyl)-1H-1,2,3-triazol-4-yl)methyl)-1-methyl-1H-pyrazol-5-amine] — higher, > 10 µM
- Fc1ccc(-n2cc(CNc3ncc(Cl)cn3)nn2)cc1C(F)F [Example 212, 5-Chloro-N-[[1-[3-(difluoromethyl)-4-fluoro-phenyl]triazol-4-yl]methyl]pyrimidin-2-amine] — 9.8-fold lower, 0.074 µM
- Cc1cnc(OCc2cn(-c3cccc(OC(F)(F)F)c3)nn2)nc1N [Example 343, 5-Methyl-2-[[1-[3-(trifluoromethoxy)phenyl]triazol-4-yl]methoxy]pyrimidin-4-amine] — 18-fold lower, 0.04 µM
- COc1cnc(OCc2cn(-c3ccc(Cl)c(OCCF)c3)nn2)nc1 [Example 193, 2-[[1-[4-Chloro-3-(2-fluoroethoxy)phenyl]triazol-4-yl]methoxy]-5-methoxy-pyrimidine] — 8.2-fold lower, 0.089 µM
- Cc1cnc(OCc2cn(-c3ccc(OC(F)(F)F)cc3)nn2)nc1 [Example 339, 5-Methyl-2-[[1-[4-(trifluoromethoxy)phenyl]triazol-4-yl]methoxy]pyrimidine] — 1.6-fold higher, 1.13 µM
- Cn1ccnc1NCc1cn(-c2ccc(F)c(C(F)F)c2)nn1 [Example 220, N-((1-(3-(Difluoromethyl)-4-fluorophenyl)-1H-1,2,3-triazol-4-yl)methyl)-1-methyl-1H-imidazol-2-amine] — 5-fold higher, 3.65 µM
- FC(F)c1cc(-n2cc(COc3ncccn3)nn2)ccc1Cl [Example 1, 2-((1-(4-Chloro-3-(difluoromethyl)phenyl)-1H-1,2,3-triazol-4-yl)methoxy)pyrimidine] — 15-fold lower, 0.049 µM
- C[C@H](Oc1ncc(Cl)cn1)c1cn(-c2ccc(Cl)c(OC(F)F)c2)nn1 [Example 379, 5-Chloro-2-[(1S)-1-[1-[4-chloro-3-(difluoromethoxy)phenyl]triazol-4-yl]ethoxy]pyrimidine] — within 1.5-fold, 0.575 µM
- Cn1cc(NCc2cn(-c3ccc(F)c(C(F)F)c3)nn2)cn1 [Example 99, N-[[1-[3-(Difluoromethyl)-4-fluoro-phenyl]triazol-4-yl]methyl]-1-methyl-pyrazol-4-amine] — 7-fold higher, 5.05 µM
- Cc1nc(OCc2cn(-c3ccc4c(c3)OC(F)(F)O4)nn2)ncc1F [Example 357, 2-[[1-(2,2-Difluoro-1,3-benzodioxol-5-yl)triazol-4-yl]methoxy]-5-fluoro-4-methyl-pyrimidine] — 2.1-fold lower, 0.35 µM
- CCc1cnc(NCc2cn(-c3ccc(F)c(C(C)(F)F)c3)nn2)nc1 [Example 207, N-[[1-[3-(1,1-Difluoroethyl)-4-fluoro-phenyl]triazol-4-yl]methyl]-5-ethyl-pyrimidin-2-amine] — 5.7-fold lower, 0.128 µM
- COCc1ccnc(OCc2cn(-c3ccc4c(c3)CCC4)nn2)n1 [Example 368, 2-[(1-Indan-5-yltriazol-4-yl)methoxy]-4-(methoxymethyl)pyrimidine] — 6.4-fold lower, 0.114 µM
- CC(F)(F)c1cccc(-n2cc(COc3ncc(Br)cn3)nn2)c1 [Example 293, 5-Bromo-2-[[1-[3-(1,1-difluoroethyl)phenyl]triazol-4-yl]methoxy]pyrimidine] — 19-fold lower, 0.039 µM
- FC(F)c1cc(-n2cc(COc3ccncn3)nn2)ccc1Cl [Example 12, 4-[[1-[4-Chloro-3-(difluoromethyl)phenyl]triazol-4-yl]methoxy]pyrimidine] — 3.1-fold higher, 2.23 µM
- C[C@@H](Oc1ncc(Cl)cn1)c1cn(-c2ccc(Cl)c(OC(F)F)c2)nn1 [Example 375, 5-Chloro-2-[(1R)-1-[1-[4-chloro-3-(difluoromethoxy)phenyl]triazol-4-yl]ethoxy]pyrimidine] — 73-fold lower, 0.01 µM
- Fc1ccc(-n2cc(COc3ncccn3)nn2)cc1C(F)(F)F [Example 82, 2-[[1-[4-Fluoro-3-(trifluoromethyl)phenyl]triazol-4-yl]methoxy]pyrimidine] — 5.8-fold lower, 0.126 µM
- Cc1cnc(OCc2nnn(-c3ccc(F)c(C(C)(F)F)c3)c2C)nc1 [Example 173, 2-[[1-[3-(1,1-Difluoroethyl)-4-fluoro-phenyl]-5-methyl-triazol-4-yl]methoxy]-5-methyl-pyrimidine] — 1.6-fold lower, 0.465 µM
